The record followed here is EP4748847A1, “PEPTIDE COMPLEX HAVING VEGFR -2 AGONIST ACTIVITY” (Peptidream Inc, priority 2023, dated 2025).

*1 amine or outer side, *2 acyl side, *3 side chain or, on linkers, in order; H or OH if unused. Where a SMILES comes first, the peptide text is derived from it. Bridges are numbered along the chain shown (N, C = ends). Roman numbers before positions name the chains, in order. [ ]: non-standard residue; d: D form. The star is where a group is joined. CO(CH2)2(OCH2CH2)17CO = O=C(CCOCCOCCOCCOCCOCCOCCOCCOCCOCCOCCOCCOCCOCCOCCOCCOCCOCCC(=O)[*:2])[*:1]; X2 = O=C(OCCOCCOCCOCCOCCOCCOCCOCCOCCOCCOCCOCCOC(=O)[*:2])[*:1]; Phe(4-guanidino) = N=C(N)Nc1ccc(C[C@H](N)C(=O)O)cc1; hTyr = N[C@@H](CCc1ccc(O)cc1)C(=O)O; Chg = N[C@H](C(=O)O)C1CCCCC1; Tle = CC(C)(C)[C@H](N)C(=O)O; Carboxymethyl = O=C(O)C*

In one assay the test system is ERK. Nature of the assay: pERK AlphaLISA assay (ERK phosphorylation, p-Erk1/2 Thr202/Tyr204) in HUVEC lysate. It is filed as cell-based, human. The note with it: HUVEC lysate of the pVEGFR assay; % activity, maximum VEGF165a signal = 100%, unstimulated = 0%; peptide 10, 100 nM (dimer structures 2-41). The procedure: To evaluate the intracellular signaling activation ability of the VEGFR-2 agonist peptides of the present invention, ERK phosphorylation was verified. Using the lysate employed in the pVEGFR AlphaLISA assay, the assay was performed according to the protocol of the AlphaLISA SureFire Ultra p-Erk1/2 (Thr202/Tyr204) Assay Kit (PerkinElmer). Signal detection was performed using a SpectraMax Paradigm multimode microplate reader (Molecular Devices). The obtained signals were analyzed using GraphPad Prism, and % activity was calculated with the maximum signal induced by VEGF165a set as 100% and the unstimulated control as 0%.
The VEGF165a concentration was evaluated at five points (0.08, 0.31, 1.25, 5, 20 nM) using 1/4-fold dilutions starting from 20 nM to determine the maximum value (100%). Peptide concentrations tested were: 3.2, 16, 80 nM for dimer structure […], 100 nM for dimer structures numbers 2-41; and 1.25, 5, 20 nM for dimer structures numbers 42-57.
For % activity, peptides showing ≥50% activity at 3.2 nM were designated 1-A, those showing ≥50% activity at 16 nM were designated 1-B, those showing ≥50% activity at 80 nM were designated 1-C, and those showing ≥1% but <50% activity at 80 nM were designated 1-D. […]
(In general: In Alpha technology, singlet oxygen from a donor bead excites a nearby acceptor bead.)

A further assay concerns the target T1, VEGFR-2 (Homo sapiens, UniProt P35968).
T1 construct: endogenous in cells; host or cells: HUVEC
In words: pVEGFR AlphaLISA assay (VEGFR-2 phosphorylation, p-Tyr1175) in HUVECs. It is filed as cell-based. As to conditions: 10 minutes stimulation, % activity, maximum VEGF165a signal = 100%, unstimulated = 0%, peptide 10, 100 nM (dimer structures 2-41). The procedure: To evaluate the VEGFR-2 activation ability of the VEGFR-2 agonist peptides of the present invention, VEGFR-2 phosphorylation was verified. HUVECs were cultured using EGM™ -2 Endothelial Cell Growth Medium-2 BulletKit (LONZA; CC-3162). After detaching cells using Tryple (Thermo Fisher Scientific), they were seeded into a 96-well PDL-coated plate (Corning: 354461) at a density of 24,000 cells per well and cultured for 2 days. For starvation, the medium was replaced with EBM-2 medium (LONZA) containing 0.5% FBS (Thermo Fisher Scientific), 0.1% heparin (included with the above LONZA CC-3162), and 0.1% gentamicin (Nacalai), and the cells were cultured for 18 hours. Subsequently, Recombinant Human VEGF165a Protein (R&D Systems) or the peptide was added, and the cells were cultured in a CO2 incubator at 37°C. After 10 minutes of stimulation, cells were lysed using the Lysis Buffer included in the AlphaLISA SureFire Ultra VEGFR-2 (p-Tyr1175) Assay Kit (PerkinElmer) to lyse the cells. The procedure was performed according to the kit protocol, and signal detection was performed using a SpectraMax Paradigm multimode microplate reader (Molecular Devices). The obtained signals were analyzed using GraphPad Prism, and % activity was calculated with the maximum signal induced by VEGF165a set as 100% and the unstimulated control as 0%.
The VEGF165a concentration was evaluated at five points (0.08, 0.31, 1.25, 5, 20 nM) using 1/4-fold dilutions starting from 20 nM to determine the maximum value (100%). Peptide concentrations tested were: 3.2, 16, 80 nM for dimer structure number 1; 10, 100 nM for dimer structures numbers 2-41; and 1.25, 5, 20 nM for dimer structures numbers 42-57. […]
Peptides showing 50% or more activity at 10 nM were designated 2-A, those showing 50% or more activity at 100 nM were designated 2-B, and those showing 1% or more but less than 50% activity at 100 nM were designated 2-C.
Peptides showing 50% or more activity at 1.25 nM were designated 3-A, those showing 50% or more activity at 5 nM were designated 3-B, those showing 50% or more activity at 20 nM were designated 3-C, and those showing 1% or more but less than 50% activity at 20 nM were designated 3-D.

T1 sequence (P35968 20-1356): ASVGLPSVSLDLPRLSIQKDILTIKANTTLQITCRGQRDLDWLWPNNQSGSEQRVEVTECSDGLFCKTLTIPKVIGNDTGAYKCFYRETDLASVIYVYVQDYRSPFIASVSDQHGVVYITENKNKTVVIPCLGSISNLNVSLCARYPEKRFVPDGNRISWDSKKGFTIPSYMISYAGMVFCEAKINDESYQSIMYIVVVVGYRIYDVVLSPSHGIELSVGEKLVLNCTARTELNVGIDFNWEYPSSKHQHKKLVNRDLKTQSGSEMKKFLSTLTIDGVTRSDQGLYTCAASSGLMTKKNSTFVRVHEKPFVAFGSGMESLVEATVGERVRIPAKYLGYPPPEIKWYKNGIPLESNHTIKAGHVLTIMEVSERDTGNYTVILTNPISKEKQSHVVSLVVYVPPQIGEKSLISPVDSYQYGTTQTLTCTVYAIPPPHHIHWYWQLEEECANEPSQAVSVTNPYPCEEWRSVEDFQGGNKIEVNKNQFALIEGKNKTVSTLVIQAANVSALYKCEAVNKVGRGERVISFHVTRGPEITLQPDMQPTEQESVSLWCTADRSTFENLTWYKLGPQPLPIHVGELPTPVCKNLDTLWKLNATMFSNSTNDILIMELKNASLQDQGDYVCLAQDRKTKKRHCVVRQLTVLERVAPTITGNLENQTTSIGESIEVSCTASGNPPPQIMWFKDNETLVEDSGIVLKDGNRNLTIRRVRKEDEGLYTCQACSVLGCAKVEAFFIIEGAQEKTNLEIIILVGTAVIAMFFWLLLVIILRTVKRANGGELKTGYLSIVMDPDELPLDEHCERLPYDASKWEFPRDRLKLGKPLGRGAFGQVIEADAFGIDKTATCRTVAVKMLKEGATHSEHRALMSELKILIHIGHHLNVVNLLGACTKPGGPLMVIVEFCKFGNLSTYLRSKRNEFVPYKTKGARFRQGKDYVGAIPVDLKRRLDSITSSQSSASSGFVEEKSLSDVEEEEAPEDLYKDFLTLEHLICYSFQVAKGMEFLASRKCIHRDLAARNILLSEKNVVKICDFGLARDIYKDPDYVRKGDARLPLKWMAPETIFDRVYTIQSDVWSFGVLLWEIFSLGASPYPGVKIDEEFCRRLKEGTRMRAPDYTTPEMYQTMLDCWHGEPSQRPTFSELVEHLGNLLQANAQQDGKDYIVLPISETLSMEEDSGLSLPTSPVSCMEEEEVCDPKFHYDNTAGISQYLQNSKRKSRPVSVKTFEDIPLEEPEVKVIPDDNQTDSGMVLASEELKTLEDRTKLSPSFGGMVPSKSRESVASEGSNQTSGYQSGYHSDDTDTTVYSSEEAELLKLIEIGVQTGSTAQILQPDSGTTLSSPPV

Regarding `CC(C)[C@@H]1NC(=O)CNC(=O)[C@H](CCCCNC(=O)OCCOCCOCCOCCOCCOCCOCCOCCOCCOCCOCCOCCOC(=O)NCCCC[C@@H]2NC(=O)[C@H](C(C)C)NC(=O)[C@H](CC(=O)O)NC(=O)[C@H](C(C)C)NC(=O)[C@H](Cc3c[nH]c4ccccc34)NC(=O)[C@H](Cc3c[nH]c4ccccc34)NC(=O)CSC[C@@H](C(=O)NCC(N)=O)NC(=O)[C@H](CC(=O)O)NC(=O)[C@H](CCc3ccc(O)cc3)NC(=O)[C@H](Cc3ccccc3)NC(=O)[C@H](Cc3ccc(O)cc3)NC(=O)[C@H](CC(N)=O)NC(=O)[C@H](C(C)C)NC(=O)CNC2=O)NC(=O)[C@H](C(C)C)NC(=O)[C@H](CC(=O)O)NC(=O)[C@H](C(C)C)NC(=O)[C@H](Cc2c[nH]c3ccccc23)NC(=O)[C@H](Cc2c[nH]c3ccccc23)NC(=O)CSC[C@@H](C(=O)NCC(N)=O)NC(=O)[C@H](CC(=O)O)NC(=O)[C@H](CCc2ccc(O)cc2)NC(=O)[C@H](Cc2ccccc2)NC(=O)[C@H](Cc2ccc(O)cc2)NC(=O)[C@H](CC(N)=O)NC1=O` [compound 37] (I: {CH2CO}-WWVDVKGVNYF[hTyr]DCG-NH2 / II: {CH2CO}-WWVDVKGVNYF[hTyr]DCG-NH2; linker I:6-II:6 via X2; thioether I:N-I:14, II:N-II:14), the “pERK Assay Results” value in the assay with ERK is 2-B (50% or more activity at 100 nM). In addition, the “pVEGFR2 Assay Results” value at VEGFR-2 was 2-A (50% or more activity at 10 nM).

In the case of `CC(C)C[C@@H]1NC(=O)[C@H](CC(=O)O)NC(=O)[C@H](CC(=O)O)NC(=O)[C@H](CCCCNC(=O)CCOCCOCCOCCOCCOCCOCCOCCOCCOCCOCCOCCOCCOCCOCCOCCOCCOCCC(=O)NCCCC[C@@H]2NC(=O)[C@H](C(C)C)NC(=O)[C@H](CC(=O)O)NC(=O)[C@H](C(C)(C)C)NC(=O)[C@H](Cc3c[nH]c4ccccc34)NC(=O)[C@H](Cc3ccc(OCC(=O)O)cc3)NC(=O)CSC[C@@H](C(=O)NCC(N)=O)NC(=O)[C@H](CC(=O)O)NC(=O)[C@H](CCc3ccc(O)cc3)NC(=O)[C@H](Cc3ccccc3)NC(=O)[C@H](Cc3ccc(O)cc3)NC(=O)[C@H](CC(C)C)NC(=O)[C@H](CC(=O)O)NC(=O)[C@H](CC(=O)O)NC2=O)NC(=O)[C@H](C(C)C)NC(=O)[C@H](CC(=O)O)NC(=O)[C@H](C(C)(C)C)NC(=O)[C@H](Cc2c[nH]c3ccccc23)NC(=O)[C@H](Cc2ccc(OCC(=O)O)cc2)NC(=O)CSC[C@@H](C(=O)NCC(N)=O)NC(=O)[C@H](CC(=O)O)NC(=O)[C@H](CCc2ccc(O)cc2)NC(=O)[C@H](Cc2ccccc2)NC(=O)[C@H](Cc2ccc(O)cc2)NC1=O` [compound 24] (I: {CH2CO}-Y(Carboxymethyl)W[Tle]DVKDDLYF[hTyr]DCG-NH2 / II: {CH2CO}-Y(Carboxymethyl)W[Tle]DVKDDLYF[hTyr]DCG-NH2; linker I:6-II:6 via CO(CH2)2(OCH2CH2)17CO; thioether I:N-I:14, II:N-II:14), the “pVEGFR2 Assay Results” value at VEGFR-2 is on record as 2-B (50% or more activity at 100 nM).

Consider `CC(C)C[C@@H]1NC(=O)[C@H](CC(=O)O)NC(=O)[C@H](CC(=O)O)NC(=O)[C@H](CCCCNC(=O)CCOCCOCCOCCOCCOCCOCCOCCOCCOCCOCCOCCOCCOCCOCCOCCOCCOCCC(=O)NCCCC[C@@H]2NC(=O)[C@H](C(C)C)NC(=O)[C@H](CC(=O)O)NC(=O)[C@H](C(C)(C)C)NC(=O)[C@H](Cc3c[nH]c4ccccc34)NC(=O)[C@H](Cc3c[nH]c4ccccc34)NC(=O)CSC[C@@H](C(=O)NCC(N)=O)NC(=O)[C@H](CC(=O)O)NC(=O)[C@H](C(C)C)NC(=O)[C@H](Cc3ccc(NC(=N)N)cc3)NC(=O)[C@H](Cc3ccc(O)cc3)NC(=O)[C@H](CC(C)C)NC(=O)[C@H](CC(=O)O)NC(=O)[C@H](CC(=O)O)NC2=O)NC(=O)[C@H](C(C)C)NC(=O)[C@H](CC(=O)O)NC(=O)[C@H](C(C)(C)C)NC(=O)[C@H](Cc2c[nH]c3ccccc23)NC(=O)[C@H](Cc2c[nH]c3ccccc23)NC(=O)CSC[C@@H](C(=O)NCC(N)=O)NC(=O)[C@H](CC(=O)O)NC(=O)[C@H](C(C)C)NC(=O)[C@H](Cc2ccc(NC(=N)N)cc2)NC(=O)[C@H](Cc2ccc(O)cc2)NC1=O` [Dimer Structure No. 43] (I: {CH2CO}-WW[Tle]DVKDDLY[Phe(4-guanidino)]VDCG-NH2 / II: {CH2CO}-WW[Tle]DVKDDLY[Phe(4-guanidino)]VDCG-NH2; linker I:6-II:6 via CO(CH2)2(OCH2CH2)17CO; thioether I:N-I:14, II:N-II:14), for which the “pVEGFR2 Assay Results” value at VEGFR-2 is reported as 2-C (1% or more but less than 50% activity at 100 nM).

For the molecule `CC(C)C[C@@H]1NC(=O)[C@H](CC(=O)O)NC(=O)[C@H](CC(=O)O)NC(=O)[C@H](CCCCNC(=O)CCOCCOCCOCCOCCOCCOCCOCCOCCOCCOCCOCCOCCOCCOCCOCCOCCOCCC(=O)NCCCC[C@@H]2NC(=O)[C@H](C(C)C)NC(=O)[C@H](CC(=O)O)NC(=O)[C@H](C3CCCCC3)NC(=O)[C@H](Cc3c[nH]c4ccccc34)NC(=O)[C@H](Cc3c[nH]c4ccccc34)NC(=O)CSC[C@@H](C(=O)NCC(N)=O)NC(=O)[C@H](CC(=O)O)NC(=O)[C@H](CCc3ccc(O)cc3)NC(=O)[C@H](Cc3ccccc3)NC(=O)[C@H](Cc3ccc(O)cc3)NC(=O)[C@H](CC(C)C)NC(=O)[C@H](CC(=O)O)NC(=O)[C@H](CC(=O)O)NC2=O)NC(=O)[C@H](C(C)C)NC(=O)[C@H](CC(=O)O)NC(=O)[C@H](C2CCCCC2)NC(=O)[C@H](Cc2c[nH]c3ccccc23)NC(=O)[C@H](Cc2c[nH]c3ccccc23)NC(=O)CSC[C@@H](C(=O)NCC(N)=O)NC(=O)[C@H](CC(=O)O)NC(=O)[C@H](CCc2ccc(O)cc2)NC(=O)[C@H](Cc2ccccc2)NC(=O)[C@H](Cc2ccc(O)cc2)NC1=O` [compound 25] (I: {CH2CO}-WW[Chg]DVKDDLYF[hTyr]DCG-NH2 / II: {CH2CO}-WW[Chg]DVKDDLYF[hTyr]DCG-NH2; linker I:6-II:6 via CO(CH2)2(OCH2CH2)17CO; thioether I:N-I:14, II:N-II:14), the “pVEGFR2 Assay Results” value at VEGFR-2 is 2-C (1% or more but less than 50% activity at 100 nM).
